Assay results from PubChem BioAssay AID179 (DTP/NCI, 2004).
Calls of active or inactive are those of the source.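 How the source made its calls: active means compounds giving half or more protection of infected cells from virus-caused growth loss, again on retest; inactive means the rest.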

Test system: CEM cells HIV-1 protection, formazan growth assay
Assay: NCI AIDS Antiviral Assay
Settings: for IC50: measured here: growth of uninfected CEM cells
Procedure, shortened: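 Human CEM cells, uninfected and HIV-1-infected, exposed to five drug concentrations; growth measured by soluble formazan assay and scored as percent protection from infection, with protecting compounds retested.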

CC12CCC([C@H](Nc3cc(C(F)(F)F)cc(C(F)(F)F)c3)C1=O)C2(C)C (stereo partly specified)
EC50: > 20 µM | IC50: > 20 µM

N#Cc1ccc(OCc2nc3cc(C(F)(F)F)ccc3nc2-c2ccccc2)cc1
EC50: > 200 µM | IC50: 30.2 µM

COc1nc(C(=O)NNC(=O)c2nc(OC)c3ccccc3c2-c2ccccc2)c(-c2ccccc2)c2ccccc12
outcome: inactive

O=C1C=CC(=O)[C@H]2C3C=CC(C4C3C3(Cl)C(Cl)=C(Cl)[C@]4(Cl)C3(Cl)Cl)[C@@H]12 (stereo partly specified)
EC50: > 200 µM | IC50: 12 µM

CSc1ccc(C(=C=C=C(c2ccc(SC)s2)c2ccc(SC)s2)c2ccc(SC)s2)s1
EC50: > 200 µM | IC50: > 200 µM

CCOC(=O)/C(=C\c1ccc[nH]1)C(=O)c1ccccc1
EC50: > 95.5 µM | IC50: > 95.5 µM

Cc1cn(C2CC(N=[N+]=[N-])C(COC(=O)CCOCCCCCCCCCl)O2)c(=O)[nH]c1=O (stereo unspecified)
EC50: 0.00692 µM | IC50: 20 µM

CC(C)(C)N/N=C(/Cc1nc2c3c(ccc2[nH]c1=O)C(=O)c1ccccc1C3=O)C(=O)NC1=C(Cl)C(=O)c2ccccc2C1=O
EC50: > 11.5 µM | IC50: > 11.5 µM

N[C@H](CCOc1ccc(/C(=N/O)C(=O)N[C@H]2CN([C@@H](C(=O)O)c3ccc(O)cc3)C2=O)cc1)C(=O)O
EC50: > 200 µM | IC50: > 200 µM

CCOC(=O)c1c(C)nn2c1ccc1ccccc12
EC50: > 200 µM | IC50: 110 µM

COCCc1c(C)c(C#N)c2n(C)c3ccccc3n2c1=O
EC50: > 200 µM | IC50: > 200 µM

CO[C@@]12CC(=O)/C(=C(O)\C=C\c3ccccc3)C(=O)[C@]1(OC)Cc1ccccc1O2
EC50: > 17.8 µM | IC50: 15.5 µM

CC1=CC(/C=C(\C)CCCc2ccoc2)C2(OC(=O)C(C)=C2O)[C@H]2C1CC[C@@H]2C (stereo partly specified)
outcome: inactive

OC[C@@H]1C2CCC([C@@H]1CO)C2(Cc1ccccc1)Cc1ccccc1
EC50: > 89.1 µM | IC50: > 89.1 µM

NC(C(=O)O)C1=CCCCCC1 (stereo unspecified)
EC50: > 200 µM | IC50: > 200 µM

CCOC(=O)c1[nH]c2nc(SC)nc(NC)c2c1N
EC50: > 200 µM | IC50: 129 µM

CCOC1SC(SC)=NN1C(=O)C(OC(C)=O)C(OC(C)=O)C(OC(C)=O)C(OC(C)=O)C(=O)N1N=C(SC)SC1OCC (stereo unspecified)
outcome: inactive

COc1cc2nncc(Cl)c2cc1OC
EC50: > 95.5 µM | IC50: 79.4 µM

CC(=O)Nc1ccc(C(=O)OCC2OC(n3cc(C)c(=O)[nH]c3=O)CC2N=[N+]=[N-])cc1 (stereo unspecified)
EC50: 0.148 µM | IC50: 38.9 µM

O=C(Cc1nc2ccccc2c(=O)n1-c1ccccc1Cl)c1ccncc1
EC50: > 5.37 µM | IC50: > 5.37 µM

O=S(=O)(O)c1cc2c(c(S(=O)(=O)O)c1)[O][Sb]1([O]2)[O]c2cc(S(=O)(=O)O)cc(S(=O)(=O)O)c2[O]1
EC50: > 324 µM | IC50: > 324 µM

O=C(O)COc1ccc2c3c1C(=O)CCC3CO2 (stereo unspecified)
outcome: inactive

CC1(C)OC(=O)C(=Cc2cccc(C#N)c2)C(=O)O1
EC50: > 708 µM | IC50: 41.7 µM

CC1(C)S(=O)(=O)OCCOS1(=O)=O
EC50: > 200 µM | IC50: 110 µM

N#Cc1cc(NC(=O)c2ccccc2)c(=O)n2c1[nH]c1ccccc12
outcome: inactive

CCOC(=O)Cc1nc(Nc2ccc(F)c(Cl)c2)c2c3c(sc2n1)CCCC3
EC50: > 12.3 µM | IC50: > 12.3 µM

CC(C)C1NC(=O)[C@H](C)OC(=O)[C@@H](C(C)C)NC(=O)[C@@H](C)OC(=O)C(C(C)C)NC(=O)[C@H](C)OC1=O (stereo partly specified)
EC50: > 251 µM | IC50: > 251 µM

C/C(=N\NS(=O)(=O)c1ccc(C)cc1)C(CN(C)C)C(c1ccccc1)c1c(O)c2ccccc2oc1=O (stereo unspecified)
EC50: > 72.4 µM | IC50: > 72.4 µM

CCCCCCNC(=O)/C(=C/C=C/c1ccccc1)NC(=O)c1ccccc1
EC50: > 200 µM | IC50: 49 µM

COc1ccc2c(c1)-c1c(c3ccccc3n1CCN1CCCCC1)CC2
EC50: > 100 µM | IC50: 30.9 µM

Cc1nnc(N)nc1/C=C\c1cccs1
EC50: > 200 µM | IC50: 5.5 µM

Cc1nc2c(=O)n(C)c(=O)nc-2n(CCO)c1C
EC50: > 100 µM | IC50: 83.2 µM

CC1=NN(C(=O)CC(=O)N(C(=O)c2ccccc2Cl)c2ccc(C)cc2)C(=O)C1N=Nc1ccc([N+](=O)[O-])cc1 (stereo unspecified)
EC50: > 12.9 µM | IC50: > 12.9 µM
